Ends that are not written are not given here.
Assays:
[1] = system: rats; assay: rat-tail flick method of D'Amour and Smith (analgesia); assay type: in vivo; settings: for Mean % Change ± SEM (latency, drug minus baseline) / Mean Latency ± SEM, Drug: injected into the lateral ventricle in Ringer's solution, 100 μg (morphine sulfate 10 μg)
Protocol: In this test method, which is a standard test for analgesia, a light beam is focused on the tip of the rat's tail, and the pain threshold of the animal is measured by the latency of the rat to remove his tail from the noxious heat source. When tested by the rat-tail flick method by intracerebroventricular injection, according to the procedure of Belluzzi et al., Nature, 260, 625 (1976), the pentapeptide H-Tyr-Gly-Gly-Phe-Ser-OHproduced the effects set forth in Table I.
*All drugs were dissolved in […] of Ringer's solution and injected into
the lateral ventricle through permanently-indwelling cannulae.
*Subcutaneous in saline solution.

[2] = system: guinea pig ileum; settings: literature, Hughes et al.; cited from earlier work
[3] = system: opiate receptor (3H-naloxone binding) in brain homogenates; settings: literature; cited from earlier work
[4] = system: rats; settings: injection in the brain ventricle in rats; fully reversible by naloxone; Beluzzi et al.; cited from earlier work
[5] = system: mouse vas deferens; settings: literature, Hughes et al.; cited from earlier work
[6] = system: guinea pig ileum; assay: electrically-induced contraction of guinea pig ileum; settings: effect blocked by naloxone
From the text: Enkephalin, a natural opiate receptor agonist in brain, has been identified [see Hughes et al., Nature, 256, 577(1975)] as a mixture of two pentapeptides: H-Tyr-Gly-Gly-Phe-Met-OH (methionine-enkephalin) and H-Tyr-Gly-Gly-Phe-Leu-OH (leucine-enkephalin).

[7] = system: opiate receptors; assay: binding to opiate receptors in vitro; settings: effect blocked by naloxone
[8] = system: rats; assay: rat-tail flick method of D'Amour and Smith (analgesia); assay type: in vivo; settings: intravenous (i.v.) injection, 5 mg/kg
[9] = rat-tail flick, 10 mg/kg subcutaneous in saline solution

| Molecule | Mean % Change ± SEM (latency, drug minus baseline) ([1]; rat-tail flick) [%] | Mean Latency ± SEM, Drug ([1]; rat-tail flick) | block of electrically evoked contractions of guinea pig ileum (in words) [2] | inhibition of stereospecific receptor binding of 3H-naloxone (in words) [3] | analgesia (in words) [4] | block of electrically evoked contractions of mouse vas deferens (in words) [5] | block of electrically-induced contraction of guinea pig ileum (in words) [6] | binding to opiate receptors in vitro (in words) [7] | pain threshold (in words) ([1]; injection into the lateral brain ventricle, significant difference versus vehicle) | Mean % Change ± SEM (latency) [1, 9] [%] | Mean Latency ± SEM, Pentapeptide [1, 9] | analgesic effect (in words) ([1]; subcutaneous (s.c.) injection, 10 mg/kg in saline) | analgesic activity (in words) [8] |
| --- | --- | --- | --- | --- | --- | --- | --- | --- | --- | --- | --- | --- | --- |
| CN1CC[C@]23c4c5ccc(O)c4O[C@H]2[C@@H](O)C=C[C@H]3[C@H]1C5.O=S(=O)(O)O [Morphine Sulfate] | 65.4 | 6.59 | – | – | – | – | – | – | – | – | – | – | – |
| CSCC[C@H](NC(=O)[C@H](Cc1ccccc1)NC(=O)CNC(=O)CNC(=O)[C@@H](N)Cc1ccc(O)cc1)C(=O)O [Methionine-Enkephalin, H-Tyr-Gly-Gly-Phe-Met-OH] | 37.2 | 5.19 | mimic the ability of morphine to block | inhibit | profound analgesia | mimic the ability of morphine to block | – | – | – | – | – | – | – |
| H-Tyr-Gly-Gly-Phe-Leu-OH [leucine-enkephalin] | – | – | mimic the ability of morphine to block | inhibit | profound analgesia | mimic the ability of morphine to block | – | – | – | – | – | – | – |
| YGGFS [H-Tyr-Gly-Gly-Phe-Ser-OH, L-Tyrosyl-Glycyl-Glycyl-L-Phenylalanyl-L-Serine] | 39.25 | 5.77 | – | – | – | – | blocks | weak binding | increase in pain threshold | 26.16 ± 14.36 | 5.15 ± 0.60 | weak analgesic effect | no analgesic activity |

From patent publication US4128541A, “Pentapeptide with morphine- like activity” (American Home Products Corporation, priority 1976, dated 1978)
